Literature values, collected in patent publication US20020144302A1 (priority 1996, published 2002).

Details: man; daily dose around 200 mg (Vidal, 1996)

CC(C)OC(=O)C(C)(C)Oc1ccc(C(=O)c2ccc(Cl)cc2)cc1 [fenofibrate]
plasma concentration: about 15 μg/ml
